# US20260248165A1, “A SWEETENER OR SWEETNESS ENHANCER COMPOSITION” (Analyticon Discovery – Zweigniederlassung der BRAIN Biotech …, priority 2022, published 2026)
# Key:
# [1] = Organoleptic test in combination with sucrose against sucrose (sucrose enhancement), 2-AFC; type: in vivo; set-up: key: 3: sweeter than the control solution; 2: sweetness comparable with the control solution; 1: less sweet than the control solution but still sweet; 0: no intrinsic sweetness; settings: 12 to 15 panelists; for Sweet taste enhancement of sucrose, control solution Sucrose 6%: compound 50 ppm in 6% sucrose solution vs 6% sucrose; for Sweet taste enhancement of sucrose, control solution Sucrose 7%: compound 50 ppm in 6% sucrose solution vs 7% sucrose; for Sweet taste enhancement of sucrose, control solution Sucrose 8%: compound 50 ppm in 6% sucrose solution vs 8% sucrose; for Sweet taste enhancement of sucrose, control solution Sucrose 9%: compound 50 ppm in 6% sucrose solution vs 9% sucrose
# Description: The isolated pure compounds were dissolved in non-carbonated mineral water (“Evian”) in a concentration of 50 ppm (0.05 mg/ml), 25 ppm (0.025 mg/ml), […] (0.0125 mg/ml) and […] (0.00625 mg/ml). The sweet taste of each sample was detected by a panel of 4 panelists to detect the sweetness perception level. The highest concentration below the sweetness perception level was used for the evaluation of the sweet taste enhancement of sucrose.
# A solution of the isolated compound in a concentration below the sweetness perception level was dissolved in 6% sucrose solution. The sweet taste of this sample was compared to the sweet taste of a 6% sucrose solution by a panel of 12 to 15 panelists in a two-alternative forced-choice test (2-AFC. E2164-16_Standard Test Method for Directional Difference Test). The panelists were trained to differentiate between the sweetness of a 6%, 7%, 8%, and 9% sucrose solution. The sweetness of the solution of the enhancer in 6% sucrose was compared with sucrose solutions in concentrations of 6%, 7%, 8%, and 9%.
# [2] = Organoleptic test in combination with Rebaudioside M against Rebaudioside M (Rebaudioside M enhancement), 2-AFC; type: in vivo; set-up: key: 3: sweeter than the control solution; 2: sweetness comparable with the control solution; 1: less sweet than the control solution but still sweet; 0: no intrinsic sweetness; settings: 12 to 15 panelists; for Sweet taste enhancement, control solution Reb M 150 ppm: compound in 150 ppm Rebaudioside M solution vs Reb M 150 ppm; for Sweet taste enhancement, control solution Reb M 170 ppm: compound in 150 ppm Rebaudioside M solution vs Reb M 170 ppm; for Sweet taste enhancement, control solution Reb M 190 ppm: compound in 150 ppm Rebaudioside M solution vs Reb M 190 ppm; for Sweet taste enhancement, control solution Reb M 210 ppm: compound in 150 ppm Rebaudioside M solution vs Reb M 210 ppm
# Description: The isolated pure compounds were dissolved in non-carbonated mineral water (“Evian”) in a concentration of 50 ppm (0.05 mg/ml), 25 ppm (0.025 mg/ml), […] (0.0125 mg/ml) and […]. The sweet taste of each sample was detected by a panel of 3-4 panelists to detect the sweetness perception level. The highest concentration below the sweetness perception level was used for the evaluation of the sweet taste enhancement of Rebaudioside M.
# A solution of the isolated compound in a concentration below the sweetness perception level was dissolved in 150 ppm Rebaudioside M solution. […] E2164-16_Standard Test Method for Directional Difference Test). The panelists were trained to differentiate between the sweetness of a 150 ppm, 170 ppm, 190 ppm, and a 210 ppm Rebaudioside M solution.
# [3] = Organoleptic test of the compounds against sucrose (intrinsic sweetness); type: in vivo; set-up: key: 3: sweeter than the control solution; 2: sweetness comparable with the control solution; 1: less sweet than the control solution but still sweet; 0: no intrinsic sweetness; settings: 3-4 panelists; for Sweetness 50 ppm: compound 50 ppm in mineral water vs sucrose 20 g/l; for Sweetness 200 ppm: compound 200 ppm in mineral water vs sucrose 20 g/l
# Description: The isolated pure compounds were dissolved in non-carbonated mineral water (“Evian”) in a concentration of 0.2 mg/ml (200 ppm) and 0.05 mg/ml (50 ppm). The sweet taste of each sample was compared by a panel of 3-4 panelists with a solution of sucrose in a concentration of 20 g/l.
# [4] = Organoleptic comparison of Compound 1 with Millettiasaponin A; type: in vivo; settings: both at 200 ppm and 50 ppm in mineral water; 4 panelists
# Description: Milettiasaponin A was published as sweet taste principle of an extract prepared from Derris eriocarpa (150× sweeter than sucrose) [J. Agric. Food Chem. 2017, 65, 2357-2363]. Milletiasaponin A has an additional hydroxyl group at C-24 compared to compound 1. Both compounds were dissolved in non-carbonated mineral water (“Evian”) in a concentration of 0.2 mg/ml (200 ppm) and 0.05 mg/ml (50 ppm). The sweet taste of both samples was compared by a panel of 4 panelists.
# [5] = 5% sucrose in water; concentration of 100 μm; cited from earlier work
# [6] = J. Agric. Food Chem. 2017, 65, 2357-2363; cited from earlier work
smiles,measurement,setting,value
"CC1=C(C(=O)O[C@@H]2O[C@H](CO[C@@H]3OC[C@@H](O)[C@H](O)[C@H]3O)[C@@H](O)[C@H](O)[C@H]2O)C(C)(C)CCC1 [Compound 2, Jasminoside M]","Sweet taste enhancement of sucrose, control solution Sucrose 6%",[1],3
same,"Sweet taste enhancement of sucrose, control solution Sucrose 7%",[1],3
same,"Sweet taste enhancement of sucrose, control solution Sucrose 8%",[1],3
same,"Sweet taste enhancement of sucrose, control solution Sucrose 9%",[1],2
same,"Sweet taste enhancement, control solution Reb M 150 ppm",[2],3
same,"Sweet taste enhancement, control solution Reb M 170 ppm",[2],3
same,"Sweet taste enhancement, control solution Reb M 190 ppm",[2],2
same,"Sweet taste enhancement, control solution Reb M 210 ppm",[2],1
same,Sweetness 50 ppm,[3],0
same,Sweetness 200 ppm,[3],0
"COc1cc([C@H]2c3cc(O)c(OC)cc3C[C@@H](CO[C@@H]3O[C@H](CO)[C@@H](O)[C@H](O)[C@H]3O)[C@@H]2CO)ccc1O [Compound 3, Isolariciresinol 9-glucoside]","Sweet taste enhancement of sucrose, control solution Sucrose 6%",[1],3
same,"Sweet taste enhancement of sucrose, control solution Sucrose 7%",[1],3
same,"Sweet taste enhancement of sucrose, control solution Sucrose 8%",[1],3
same,"Sweet taste enhancement of sucrose, control solution Sucrose 9%",[1],2
same,"Sweet taste enhancement, control solution Reb M 150 ppm",[2],3
same,"Sweet taste enhancement, control solution Reb M 170 ppm",[2],3
same,"Sweet taste enhancement, control solution Reb M 190 ppm",[2],2
same,"Sweet taste enhancement, control solution Reb M 210 ppm",[2],1
same,Sweetness 50 ppm,[3],0
same,Sweetness 200 ppm,[3],0
"CC(=O)O[C@@H]1C[C@](C)(C(=O)O)C[C@H]2C3=CCC4[C@@]5(C)CC[C@H](O[C@@H]6O[C@H](C(=O)O)[C@@H](O)[C@H](O)[C@H]6O[C@@H]6O[C@H](CO)[C@H](O)[C@H](O)[C@H]6O[C@@H]6O[C@@H](C)[C@H](O)[C@@H](O)[C@H]6O)C(C)(C)C5CC[C@@]4(C)[C@]3(C)CC[C@@]12C (stereo partly shown) [Compound 1, 24-Desoxy- Millettiasaponin A]","Sweet taste enhancement of sucrose, control solution Sucrose 6%",[1],3
same,"Sweet taste enhancement of sucrose, control solution Sucrose 7%",[1],3
same,"Sweet taste enhancement of sucrose, control solution Sucrose 8%",[1],3
same,"Sweet taste enhancement of sucrose, control solution Sucrose 9%",[1],3
same,"Sweet taste enhancement, control solution Reb M 150 ppm",[2],3
same,"Sweet taste enhancement, control solution Reb M 170 ppm",[2],3
same,"Sweet taste enhancement, control solution Reb M 190 ppm",[2],2
same,"Sweet taste enhancement, control solution Reb M 210 ppm",[2],2
same,Sweet taste compared with Milletiasaponin A,[4],sweeter with less aftertaste than Milletiasaponin A
same,Sweetness 50 ppm,[3],3
same,Sweetness 200 ppm,[3],3
"CCCCCc1cc2cc(O)cc(Oc3c(O)cc(O)cc3CCCCC)c2c(=O)o1 [Compound 4, Physodone]","Sweet taste enhancement of sucrose, control solution Sucrose 6%",[1],3
same,"Sweet taste enhancement of sucrose, control solution Sucrose 7%",[1],3
same,"Sweet taste enhancement of sucrose, control solution Sucrose 8%",[1],3
same,"Sweet taste enhancement of sucrose, control solution Sucrose 9%",[1],2
same,"Sweet taste enhancement, control solution Reb M 150 ppm",[2],3
same,"Sweet taste enhancement, control solution Reb M 170 ppm",[2],3
same,"Sweet taste enhancement, control solution Reb M 190 ppm",[2],3
same,"Sweet taste enhancement, control solution Reb M 210 ppm",[2],1
same,Sweetness 50 ppm,[3],0
same,Sweetness 200 ppm,[3],0
COc1ccc([C@@H]2CC(=O)c3c(O)cc(O)cc3O2)cc1O [hesperetin],Enhancement of the sweetness of sucrose,[5],41%
CC(=O)O[C@@H]1C[C@](C)(C(=O)O)C[C@H]2C3=CCC4[C@@]5(C)CC[C@H](O[C@@H]6O[C@H](C(=O)O)[C@@H](O)[C@H](O)[C@H]6O[C@@H]6O[C@H](CO)[C@H](O)[C@H](O)[C@H]6O[C@@H]6O[C@@H](C)[C@H](O)[C@@H](O)[C@H]6O)[C@](C)(CO)C5CC[C@@]4(C)[C@]3(C)CC[C@@]12C (stereo partly shown) [Milettiasaponin A],Sweetness relative to sucrose,[6],150 × sweeter than sucrose
